Laboratory results taken from US20200017496A1 (priority 2017, published 2020).
Where two headings read alike, the source gives them in different places.

Tests used:
[1] = Mouse oral bioavailability determination, CEFIXIME/Example 3 combination (Method 4); set-up: species or system Swiss Mouse; conditions: male, Swiss; Mouse; intravenous 30 mg/kg; AF1 titrated in plasma; read-out: AUC0-∞
Experimental: Water and food were available ad libitum throughout the study. Mouse were handled in accordance with the institutional and national guidelines for the care and use of laboratory animals. […] Drugs were administered by oral gavage using feeding needle. […] Plasma samples were stored at -80° C. until bioanalysis. […] Plasma samples bioanalysis and data analysis The plasma samples (20 μl) were thawed at 0° C. […] Standard samples were prepared by spiking the blank plasma into concentrations 10-5 000 ng/ml and otherwise treated as the samples. […] Mass spectrometric detection involved electrospray ionization in the negative mode followed by multiple reaction monitoring of the drugs and internal standard transitions. Actual drug concentrations were deduced from interpolation of the standard curve. The pharmacokinetic parameters were calculated using XLfit (IDBS) and Excel (Microsoft) software, using standard non-compartmental methods. The intraduodenal bioavailability was calculated by dividing the AUC obtained from the intraduodenal administration by the AUC obtained from the intravenous administration.

KPC-2 = target: T1, KPC-2 (Klebsiella pneumoniae, UniProt Q9F663); experiment: biochemical
T1 construct: made in house; host or cells: E. coli

TEM-1 = target: T2, TEM-1 (Escherichia coli, UniProt P62593); experiment: β-lactamase inhibitory activity, IC50 (nitrocefin hydrolysis); type: biochemical
T2 construct: made in house; host or cells: E. coli

PAE ampC = PAE ampC (Pseudomonas aeruginosa, UniProt P24735); experiment: biochemical
Experimental: (§1) Method 1: β-Lactamase Inhibitory Activity, Determination of IC50 (Table 1)
(§2) Enzymes were cloned in E. coli expression vector, expressed and purified in house using classical procedures. […] After 30 min of pre-incubation at room temperature, 155 μL of NCF (100 μM final) were finally added in each well. […] Enzyme activity was obtained by subtracting the background from the final signal, and was converted to enzyme inhibition using non inhibited wells. IC50 curves were fitted to a classical Langmuir equilibrium model with Hill slope using XLFIT (IDBS).

SAU PC1 = SAU PC1 (Staphylococcus aureus, UniProt P00807); experiment: biochemical
Experimental: as §1, §2

OXA-40 = target: T3, OXA-40 (Acinetobacter baumannii, UniProt Q8RLA6); experiment: biochemical
T3 construct: made in house; host or cells: E. coli
Experimental: as §1, §2

P99 ampC = target: T4, P99 ampC (Enterobacter cloacae, UniProt P05364); experiment: biochemical
T4 construct: made in house; host or cells: E. coli
Experimental: as §1, §2

OXA-1 = target: T5, OXA-1 (Escherichia coli, UniProt P13661); experiment: biochemical
T5 construct: made in house; host or cells: E. coli

OXA-48 = target: T6, OXA-48 (Klebsiella pneumoniae, UniProt Q6XEC0); experiment: biochemical
T6 construct: made in house; host or cells: E. coli

SHV-12 = target: T7, SHV-12 (Klebsiella pneumoniae, UniProt P0AD64, E235K/G234S/L31Q); experiment: β-lactamase inhibitory activity, IC50 (nitrocefin hydrolysis); type: biochemical
T7 construct: made in house; host or cells: E. coli

OXA-11 = target: T8, OXA-11 (Pseudomonas aeruginosa, UniProt Q06778); experiment: as above; type: biochemical
T8 construct: made in house; host or cells: E. coli
Experimental: as §1, §2

OXA-58 = target: T9, OXA-58 (Acinetobacter baumannii, UniProt Q2TR58); experiment: as above; type: biochemical
T9 construct: made in house; host or cells: E. coli
Experimental: as §1, §2

[2] = target: CMY-37 (Citrobacter freundii); experiment: as above; type: biochemical
Experimental: as §1, §2

OXA-51 = OXA-51 (Acinetobacter baumannii, UniProt Q5QT35)
Experimental: as §1, §2

[3] = Rat intraduodenal bioavailability determination (Method 3); type: in vivo, Sprague-Dawley (SD) rats; conditions: male, Sprague-Dawley, AF1 titrated in plasma
SHV-1 = target: T10, SHV-1 (Klebsiella pneumoniae, UniProt P0AD64); experiment: biochemical
T10 construct: made in house; host or cells: E. coli

OXA-15 = target: T11, OXA-15 (Pseudomonas aeruginosa, UniProt Q51574); experiment: biochemical
T11 construct: made in house; host or cells: E. coli

CTX-M-15 = target: T12, CTX-M-15 (Escherichia coli, UniProt Q9EXV5); experiment: biochemical
T12 construct: made in house; host or cells: E. coli

OXA-23 = target: T13, OXA-23 (Acinetobacter baumannii, UniProt Q9L4P2); experiment: biochemical
T13 construct: made in house; host or cells: E. coli

[4] = test system: Proteus mirabilis (PMI) isolates; experiment: microbe, parasite or virus in culture; type: cell-based
Experimental: (§3) Method 2: MIC of Compounds Alone and Combined with Antibacterials Against Bacterial Isolates.
(§4) Compounds of the present invention were assessed against genotyped bacterial strains (Table 3, 4) alone or in combination with an antibacterial (Table 2). […] Log phase bacterial suspensions were adjusted to a final density of 5·10^5 CFU/mL in cation-adjusted Mueller-Hinton broth (ca-MHB; Becton-Dickinson and Company) and added to each well (98 μL). Microplates were incubated for 16-20 h at 35° C. in ambient air. The MIC of the compounds was defined as the lowest concentration of said compounds that prevented bacterial growth as read by visual inspection. The MIC of ATB at each compound concentration was defined as the lowest concentration of ATB that prevented bacterial growth as read by visual inspection.

[5] = test system: Serratia marcescens (SMA) isolates; experiment: MIC of compounds alone and combined with antibacterials, broth microdilution (CLSI); type: cell-based; conditions: Serratia marcescens
Experimental: as §3, §4

[6] = test system: Escherichia coli (ECO) isolates; experiment: as above; type: cell-based; conditions: Escherichia coli, alone
Experimental: as §3, §4

[7] = test system: Enterobacter aerogenes (EAE) isolates; experiment: as above; type: cell-based; conditions: Klebsiella aerogenes
Experimental: as §3, §4

[8] = test system: Citrobacter freundii (CFR) isolates; experiment: as above; type: cell-based; conditions: Citrobacter freundii
Experimental: as §3, §4

[9] = test system: Providencia stuartii (PST) isolates; experiment: as above; type: cell-based; conditions: Providencia stuartii
Experimental: as §3, §4

[10] = test system: Klebsiella pneumoniae (KPN) isolates; experiment: as above; type: cell-based
Experimental: as §3, §4

Chain of CMY-37 (Citrobacter freundii) (A0A9R8 21-381): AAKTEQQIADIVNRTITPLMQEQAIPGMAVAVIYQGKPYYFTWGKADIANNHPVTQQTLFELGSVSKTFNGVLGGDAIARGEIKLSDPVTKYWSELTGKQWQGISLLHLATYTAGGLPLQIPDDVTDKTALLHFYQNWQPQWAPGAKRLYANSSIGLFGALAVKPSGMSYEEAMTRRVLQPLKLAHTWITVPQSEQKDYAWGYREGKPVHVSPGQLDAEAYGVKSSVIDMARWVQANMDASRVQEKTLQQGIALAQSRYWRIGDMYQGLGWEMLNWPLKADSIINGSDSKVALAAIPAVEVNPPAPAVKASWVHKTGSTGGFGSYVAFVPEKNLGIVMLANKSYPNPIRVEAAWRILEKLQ
T11 sequence (Q51574 22-275): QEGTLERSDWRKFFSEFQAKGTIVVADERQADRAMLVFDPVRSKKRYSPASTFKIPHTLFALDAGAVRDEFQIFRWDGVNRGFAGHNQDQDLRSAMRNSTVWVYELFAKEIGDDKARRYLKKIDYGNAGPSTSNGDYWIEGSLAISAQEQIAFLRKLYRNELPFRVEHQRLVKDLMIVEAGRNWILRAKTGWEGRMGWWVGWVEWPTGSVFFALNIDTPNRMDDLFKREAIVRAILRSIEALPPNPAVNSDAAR
T1 sequence (Q9F663 25-293 limits assumed): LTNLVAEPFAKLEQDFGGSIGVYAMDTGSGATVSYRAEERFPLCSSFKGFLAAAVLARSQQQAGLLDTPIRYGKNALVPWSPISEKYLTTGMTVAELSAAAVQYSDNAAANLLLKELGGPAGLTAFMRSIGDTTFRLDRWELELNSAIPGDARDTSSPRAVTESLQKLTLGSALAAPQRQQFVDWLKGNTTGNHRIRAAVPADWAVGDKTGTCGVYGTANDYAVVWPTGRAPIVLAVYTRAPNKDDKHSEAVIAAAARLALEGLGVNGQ
T10 sequence (P0AD64 22-286): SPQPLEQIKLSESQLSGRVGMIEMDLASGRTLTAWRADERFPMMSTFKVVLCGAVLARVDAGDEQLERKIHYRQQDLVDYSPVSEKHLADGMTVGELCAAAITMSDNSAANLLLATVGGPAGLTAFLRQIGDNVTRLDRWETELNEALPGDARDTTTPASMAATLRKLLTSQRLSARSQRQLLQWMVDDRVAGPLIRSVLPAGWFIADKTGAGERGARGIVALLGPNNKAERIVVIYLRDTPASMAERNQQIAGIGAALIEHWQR
T9 sequence (Q2TR58 19-280, species assumed): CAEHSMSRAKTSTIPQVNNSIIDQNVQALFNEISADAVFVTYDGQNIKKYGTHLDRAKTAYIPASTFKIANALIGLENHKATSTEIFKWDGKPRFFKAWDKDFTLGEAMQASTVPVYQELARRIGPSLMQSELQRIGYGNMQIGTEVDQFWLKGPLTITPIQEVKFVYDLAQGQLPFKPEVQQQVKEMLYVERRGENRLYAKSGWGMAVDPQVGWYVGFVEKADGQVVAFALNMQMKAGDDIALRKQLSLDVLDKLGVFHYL
T8 sequence (Q06778 21-266): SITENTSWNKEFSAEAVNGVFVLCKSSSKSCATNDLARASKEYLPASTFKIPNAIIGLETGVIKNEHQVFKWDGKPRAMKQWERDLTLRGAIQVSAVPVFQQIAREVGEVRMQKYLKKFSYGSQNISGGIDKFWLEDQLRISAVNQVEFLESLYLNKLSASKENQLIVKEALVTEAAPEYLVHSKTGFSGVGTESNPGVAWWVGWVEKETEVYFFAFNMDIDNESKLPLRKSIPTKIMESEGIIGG
T12 sequence (Q9EXV5 entry or part of it): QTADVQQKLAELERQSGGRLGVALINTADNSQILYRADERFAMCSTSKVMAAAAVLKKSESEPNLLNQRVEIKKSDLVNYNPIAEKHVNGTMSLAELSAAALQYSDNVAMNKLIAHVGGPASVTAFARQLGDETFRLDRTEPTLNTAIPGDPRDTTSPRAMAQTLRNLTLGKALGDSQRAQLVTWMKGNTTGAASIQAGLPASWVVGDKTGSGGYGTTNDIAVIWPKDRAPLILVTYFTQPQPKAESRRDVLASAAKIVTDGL
Chain of SAU PC1 (P00807 25-281): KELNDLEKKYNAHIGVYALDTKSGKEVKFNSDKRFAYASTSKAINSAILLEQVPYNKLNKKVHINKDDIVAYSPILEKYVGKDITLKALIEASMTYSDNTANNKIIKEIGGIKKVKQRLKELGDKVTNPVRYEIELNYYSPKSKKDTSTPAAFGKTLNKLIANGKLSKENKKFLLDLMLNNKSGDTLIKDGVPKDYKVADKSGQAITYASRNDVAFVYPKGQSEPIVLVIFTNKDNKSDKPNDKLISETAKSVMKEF
T6 sequence (Q6XEC0 23-265 limits assumed): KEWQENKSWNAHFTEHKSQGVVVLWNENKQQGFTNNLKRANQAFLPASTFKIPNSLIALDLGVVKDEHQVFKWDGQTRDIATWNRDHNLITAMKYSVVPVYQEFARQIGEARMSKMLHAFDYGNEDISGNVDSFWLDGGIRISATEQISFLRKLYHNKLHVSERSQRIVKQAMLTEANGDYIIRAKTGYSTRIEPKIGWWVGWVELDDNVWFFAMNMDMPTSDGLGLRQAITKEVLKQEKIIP
T2 sequence (P62593 24-286 limits assumed): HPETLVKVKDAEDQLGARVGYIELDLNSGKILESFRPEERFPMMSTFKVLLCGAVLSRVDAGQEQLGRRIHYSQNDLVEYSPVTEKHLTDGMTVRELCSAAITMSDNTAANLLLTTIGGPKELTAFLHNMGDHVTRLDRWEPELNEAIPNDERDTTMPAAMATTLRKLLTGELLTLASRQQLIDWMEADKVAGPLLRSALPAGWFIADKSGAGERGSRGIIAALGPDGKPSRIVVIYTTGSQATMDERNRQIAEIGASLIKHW
T13 sequence (Q9L4P2 18-273): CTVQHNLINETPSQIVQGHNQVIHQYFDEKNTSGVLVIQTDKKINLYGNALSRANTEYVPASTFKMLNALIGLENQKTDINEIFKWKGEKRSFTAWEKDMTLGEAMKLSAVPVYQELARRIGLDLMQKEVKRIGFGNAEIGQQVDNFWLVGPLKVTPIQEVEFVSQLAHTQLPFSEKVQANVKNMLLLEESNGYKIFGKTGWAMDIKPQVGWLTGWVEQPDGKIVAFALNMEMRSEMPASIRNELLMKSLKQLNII
T5 sequence (P13661 26-276): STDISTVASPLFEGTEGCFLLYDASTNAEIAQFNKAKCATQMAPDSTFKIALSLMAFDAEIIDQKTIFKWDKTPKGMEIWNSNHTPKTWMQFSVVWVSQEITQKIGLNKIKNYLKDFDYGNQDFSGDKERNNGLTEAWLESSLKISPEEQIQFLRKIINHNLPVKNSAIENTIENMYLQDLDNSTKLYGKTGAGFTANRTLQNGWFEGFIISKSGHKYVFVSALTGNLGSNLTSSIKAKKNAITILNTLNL
T3 sequence (Q8RLA6 entry or part of it): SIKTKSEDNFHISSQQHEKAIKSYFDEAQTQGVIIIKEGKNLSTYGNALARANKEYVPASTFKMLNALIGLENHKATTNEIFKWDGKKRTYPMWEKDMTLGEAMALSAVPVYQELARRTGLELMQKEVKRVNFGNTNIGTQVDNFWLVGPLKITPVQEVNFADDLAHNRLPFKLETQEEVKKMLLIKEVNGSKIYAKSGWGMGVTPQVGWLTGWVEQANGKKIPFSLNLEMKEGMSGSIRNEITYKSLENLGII
T7 sequence (P0AD64 22-286 L31Q/G234S/E235K): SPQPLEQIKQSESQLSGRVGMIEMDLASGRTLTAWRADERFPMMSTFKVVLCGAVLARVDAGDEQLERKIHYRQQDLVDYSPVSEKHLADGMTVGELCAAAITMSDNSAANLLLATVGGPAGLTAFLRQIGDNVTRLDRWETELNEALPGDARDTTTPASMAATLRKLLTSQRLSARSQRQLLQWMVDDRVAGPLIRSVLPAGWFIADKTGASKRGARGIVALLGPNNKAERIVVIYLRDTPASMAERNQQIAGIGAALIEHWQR
Chain of OXA-51 (Q5QT35 26-274): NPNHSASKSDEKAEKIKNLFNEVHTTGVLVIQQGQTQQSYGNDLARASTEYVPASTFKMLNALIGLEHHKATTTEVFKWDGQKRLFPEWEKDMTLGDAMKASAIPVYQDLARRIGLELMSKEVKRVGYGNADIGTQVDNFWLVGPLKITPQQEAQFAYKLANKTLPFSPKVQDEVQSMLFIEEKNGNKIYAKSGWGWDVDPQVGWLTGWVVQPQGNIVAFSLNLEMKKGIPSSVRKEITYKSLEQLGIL
T4 sequence (P05364 21-381): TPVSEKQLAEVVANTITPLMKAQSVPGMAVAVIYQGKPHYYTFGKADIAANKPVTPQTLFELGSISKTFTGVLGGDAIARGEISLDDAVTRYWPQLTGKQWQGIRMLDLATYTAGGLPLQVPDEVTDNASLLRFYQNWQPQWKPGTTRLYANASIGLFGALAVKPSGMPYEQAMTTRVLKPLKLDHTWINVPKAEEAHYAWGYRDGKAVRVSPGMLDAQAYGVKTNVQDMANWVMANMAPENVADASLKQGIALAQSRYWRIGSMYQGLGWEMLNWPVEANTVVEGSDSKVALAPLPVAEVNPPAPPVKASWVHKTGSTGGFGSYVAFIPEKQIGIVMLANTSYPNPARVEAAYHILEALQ
Chain of PAE ampC (P24735 27-397): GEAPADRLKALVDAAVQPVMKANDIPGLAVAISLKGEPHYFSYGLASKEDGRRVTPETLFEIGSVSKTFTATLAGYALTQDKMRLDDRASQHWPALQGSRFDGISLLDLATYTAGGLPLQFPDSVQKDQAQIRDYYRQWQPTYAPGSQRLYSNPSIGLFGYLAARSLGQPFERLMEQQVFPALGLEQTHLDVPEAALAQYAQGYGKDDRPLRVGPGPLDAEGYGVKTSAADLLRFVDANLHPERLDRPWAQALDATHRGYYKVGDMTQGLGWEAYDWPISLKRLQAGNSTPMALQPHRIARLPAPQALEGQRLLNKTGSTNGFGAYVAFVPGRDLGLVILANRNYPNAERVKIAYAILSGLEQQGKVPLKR

SMILES | IC50 (KPC-2) | IC50 (PAE ampC) | IC50 (SAU PC1) | IC50 (OXA-40) | IC50 (P99 ampC) | IC50 (OXA-1) | IC50 (OXA-48) | IC50 (SHV-12) | IC50 (OXA-11) | IC50 (OXA-58) | IC50 [2] | IC50 (SHV-1) | IC50 (OXA-15) | IC50 (CTX-M-15) | IC50 (OXA-23) | also measured
NC(=O)[C@@H]1CC[C@@H]2CN1C(=O)N2OC(F)(F)C(=O)[O-].[Na+] [AF1] | 0.04 µM | 0.66 µM | 0.071 µM | 2.1 µM | 0.55 µM | 1.1 µM | 0.075 µM | 0.0011 µM | 1 µM | 0.4 µM | 0.74 µM | 0.00012 µM | 0.071 µM | 0.00021 µM | 1.7 µM | AUC(0-inf) [1]: 11200 ng·h/mL; IC50 (TEM-1; TEM-1, 30 min pre-incubation, nitrocefin 100 μM, read-out: IC50): 0.00022 µM; IC50 (OXA-51): 1.7 µM; AUC(0-inf) ([3]; intravenous 10 mg/kg): 4130 ng·h/mL; AUC(0-inf) ([3]; intravenous 20 mg/kg, Phosphate pH 7.4, solution): 12500 ng·h/mL
N#C[C@@H]1CC[C@@H]2CN1C(=O)N2OC(F)(F)C(=O)[O-].[Na+] [AF2, sodium 2-[[(2S,5R)-2-cyano-7-oxo-1,6-diazabicyclo[3.2.1]octan-6-yl]oxy]-2,2-difluoro-acetate] | 0.012 µM | 0.14 µM | 0.0031 µM | 0.012 µM | 0.054 µM | 0.011 µM | 0.0007 µM | 0.0011 µM | 0.013 µM | 0.0021 µM | 0.07 µM | 0.0014 µM | 0.004 µM | 0.00016 µM | 0.011 µM | MIC ([4]; PMI UFR127, alone): >32 µg/mL; MIC ([4]; Proteus mirabilis): > 32 µg/mL; IC50 (TEM-1): 0.00096 µM; MIC [5]: > 32 µg/mL; MIC ([6]; ECO 190317): > 32 µg/mL; MIC ([6]; ECO 190457): 16 µg/mL; MIC ([6]; ECO UFR16): > 32 µg/mL; MIC ([6]; ECO UFR20): > 32 µg/mL; MIC ([6]; ECO UFR61O): > 32 µg/mL; MIC ([6]; ECO UFR209): 32 µg/mL; MIC [7]: > 32 µg/mL; MIC [8]: > 32 µg/mL; MIC [9]: > 32 µg/mL; MIC ([10]; KPN 131119, alone): >32 µg/mL; MIC ([10]; KPN 190270, alone): >32 µg/mL; MIC ([10]; KPN UFR25, alone): >32 µg/mL; MIC ([10]; KPN UFR66, alone): >32 µg/mL; MIC ([10]; KPN UFR68, alone): >32 µg/mL; MIC ([10]; Klebsiella pneumoniae): > 32 µg/mL; IC50 (OXA-51; OXA-51, 30 min pre-incubation, nitrocefin 100 μM): 0.051 µM
